The experiment concerns the target DPP4 (Homo sapiens, UniProt P27487). Description: DPP4 activity assay (DPP4 inhibitor screening assay kit, Cayman).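 On all read-outs here: fluorescence read at excitation 360 nm and emission 460 nm after the enzyme reaction ran 30 min at 37 °C in a 96-well plate.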 It counts as biochemical. Also on record: purchased Cayman Chemical, Ann Arbor, MI, USA. Particulars: for remaining activity at 10 µM: 0.5 h.
The mark [1] stands for this setting: 10 µM, control mean 100.0, Figure 1A raw data, read-out: DPP4 activity in library screen, Exp 1.
[2] abbreviates: 10 µM, control mean 100.0, Figure 1A raw data, read-out: DPP4 activity in library screen, Exp 2.
[3] abbreviates: 10 µM, control mean 100.0, Figure 1A raw data, read-out: DPP4 activity in library screen, Exp 3.
[4] abbreviates: 10 µM, control mean 100.0, mean of Exp 1-3, read-out: DPP4 activity in library screen, Mean.
Where [5] appears, read: 10 µM, control mean 100.0, Figure 1A raw data.
Where [6] appears, read: 10 µM, control mean 100.0, mean of Exp 1-3.
Setting [7] is: read-out: DPP4 activity in library screen, Exp 1, 10 µM, control mean 100.0, Figure 1A raw data.
The mark [8] stands for this setting: read-out: DPP4 activity in library screen, Exp 2, 10 µM, control mean 100.0, Figure 1A raw data.
The mark [9] stands for this setting: read-out: DPP4 activity in library screen, Exp 3, 10 µM, control mean 100.0, Figure 1A raw data.
[10] abbreviates: read-out: DPP4 activity in library screen, Mean, 10 µM, control mean 100.0, mean of Exp 1-3.

Each structure is given as a SMILES string. Where two headings read alike, the source gives them in different places.

DPP4, sequence (P27487 whole entry): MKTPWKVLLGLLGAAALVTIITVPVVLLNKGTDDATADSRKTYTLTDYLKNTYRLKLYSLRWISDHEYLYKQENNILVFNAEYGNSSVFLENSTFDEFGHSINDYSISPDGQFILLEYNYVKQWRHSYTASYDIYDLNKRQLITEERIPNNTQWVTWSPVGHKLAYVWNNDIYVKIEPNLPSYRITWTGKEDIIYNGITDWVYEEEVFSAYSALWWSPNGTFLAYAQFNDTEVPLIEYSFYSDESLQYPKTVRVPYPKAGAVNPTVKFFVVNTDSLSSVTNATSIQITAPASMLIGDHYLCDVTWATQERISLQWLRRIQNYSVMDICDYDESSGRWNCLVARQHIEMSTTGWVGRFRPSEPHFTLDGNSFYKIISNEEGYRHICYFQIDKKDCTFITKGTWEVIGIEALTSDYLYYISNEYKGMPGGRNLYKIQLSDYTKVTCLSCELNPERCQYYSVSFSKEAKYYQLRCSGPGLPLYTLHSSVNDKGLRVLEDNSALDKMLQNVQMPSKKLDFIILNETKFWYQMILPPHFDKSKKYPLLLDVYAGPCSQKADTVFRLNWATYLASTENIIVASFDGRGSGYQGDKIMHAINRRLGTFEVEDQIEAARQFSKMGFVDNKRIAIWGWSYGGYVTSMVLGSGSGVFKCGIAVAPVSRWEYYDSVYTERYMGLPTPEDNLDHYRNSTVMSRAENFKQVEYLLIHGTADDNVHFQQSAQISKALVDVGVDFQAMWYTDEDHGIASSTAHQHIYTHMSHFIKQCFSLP

Regarding `C[C@H]1[C@@H](O)O[C@@H]2O[C@@]3(C)CC[C@H]4[C@H](C)CC[C@@H]1[C@@]24OO3` [Dihydroartemisinin (DHA), Dihydroartemisinin], the remaining activity at 10 µM by setting is: under setting [1], 97.1%; under setting [2], 91%; under setting [3], 88.2%; under setting [4], 92.1%.

In the case of `OC[C@@H](O)[C@@H](O)[C@H](O)[C@@H](O)CO` [Sorbitol], the remaining activity at 10 µM reads like this: under setting [1], 94.5%; under setting [2], 91.5%; under setting [3], 90.4%; under setting [4], 92.1%.

For `COc1ccc(-c2coc3cc(O)cc(O)c3c2=O)cc1` [Biochanin A], under setting [5], the “DPP4 activity in library screen, Exp 1” value is given as 94.6; the “DPP4 activity in library screen, Exp 2” value is on record as 100.9; the “DPP4 activity in library screen, Exp 3” value is listed as 85.2. Moreover, the “DPP4 activity in library screen, Mean” value under setting [6] is listed as 93.6.

For `Cc1coc2c1C(=O)C(=O)c1c-2ccc2c(C)cccc12` [Tanshinone I], the remaining activity at 10 µM was determined as 56.8% under setting [1], 59.3% under setting [2], 58.1% under setting [3] and 58.1% under setting [4].

For `O=C(/C=C/C=C/c1ccc2c(c1)OCO2)N1CCCCC1` [Piperine], the remaining activity at 10 µM is, setting by setting: under setting [1], 67.7%; under setting [2], 60.2%; under setting [3], 77.8%; under setting [4], 68.6%.

On to `O=c1c2ccccc2nc2n1CCc1c-2[nH]c2ccccc12` [Rutaecarpine], for which the remaining activity at 10 µM under setting [1] worked out at 71.3%, the remaining activity at 10 µM under setting [2] stood at 78.6%, the remaining activity at 10 µM under setting [3] came out at 71.4% and the remaining activity at 10 µM under setting [4] was determined as 73.8%.

On to `CC[C@@]1(O)C(=O)OCc2c1cc1n(c2=O)Cc2cc3cc(O)ccc3nc2-1` [(S)-10-Hydroxycamptothecin], for which the remaining activity at 10 µM amounted to 87.4% under setting [1], 77.6% under setting [2], 85.7% under setting [3] and 83.6% under setting [4].

Turning to `C=C1C(=O)O[C@H]2[C@H]1CC/C(C)=C/CC[C@@]1(C)O[C@@H]21` [(-)-Parthenolide], under setting [5], the “DPP4 activity in library screen, Exp 1” value was 73.3; the “DPP4 activity in library screen, Exp 2” value was 84.6; the “DPP4 activity in library screen, Exp 3” value is given as 113.2. For the same compound, the “DPP4 activity in library screen, Mean” value under setting [6] was determined as 90.4.

Take `COc1cc(O)c(CC=C(C)C)c(O)c1C(=O)/C=C/c1ccc(O)cc1` [Xanthohumol]: the remaining activity at 10 µM under setting [1] came to 94.5%, the remaining activity at 10 µM under setting [2] stood at 102%, the remaining activity at 10 µM under setting [3] worked out at 126% and the remaining activity at 10 µM under setting [4] amounted to 107%.

As to `Cl.N=c1ccn2c(n1)O[C@H]1[C@H](O)[C@@H](CO)O[C@H]12` [Cyclocytidine HCl], under setting [5], the “DPP4 activity in library screen, Exp 1” value came out at 110.3; the “DPP4 activity in library screen, Exp 2” value is 95; the “DPP4 activity in library screen, Exp 3” value was 97.8. Besides, the “DPP4 activity in library screen, Mean” value under setting [6] was found to be 101.0.

Turning to `COc1ccc(-c2cc(=O)c3c(OC)c(OC)c(OC)c(OC)c3o2)cc1` [Tangeretin], the remaining activity at 10 µM under setting [1] was found to be 75.6%, the remaining activity at 10 µM under setting [2] stood at 80.1%, the remaining activity at 10 µM under setting [3] came to 66.2% and the remaining activity at 10 µM under setting [4] came out at 74%.

As for `COc1cc2c(cc1OC)-c1cc3ccc(OC)c(OC)c3c[n+]1CC2` [Palmatine chloride], the remaining activity at 10 µM by setting is: under setting [7], 49.5%; under setting [8], 48.9%; under setting [9], 43.9%; under setting [10], 47.4%.

`OC[C@H]1O[C@@H](OCCc2ccc(O)cc2)[C@H](O)[C@@H](O)[C@@H]1O` [Salidroside]: the remaining activity at 10 µM was found to be 97.1% under setting [1], 97.1% under setting [2], 113% under setting [3] and 102% under setting [4].

Consider `COc1ccc([C@@]23Oc4cc(OC)cc(OC)c4[C@]2(O)[C@H](O)[C@H](C(=O)N(C)C)[C@H]3c2ccccc2)cc1` [Rocaglamide], for which the remaining activity at 10 µM is, setting by setting: under setting [1], 100%; under setting [2], 100%; under setting [3], 94.9%; under setting [4], 98.5%.

On to `OC[C@H]1O[C@@H](Oc2ccc(O)cc2)[C@H](O)[C@@H](O)[C@@H]1O` [Arbutin], for which the remaining activity at 10 µM by setting is: under setting [1], 95.9%; under setting [2], 96.2%; under setting [3], 96.1%; under setting [4], 96.1%.

Take `COc1ccc2cc3[n+](cc2c1OC)CCc1cc2c(cc1-3)OCO2.[Cl-]` [Berberine HCl]: under setting [5], the “DPP4 activity in library screen, Exp 1” value came to 52.4; the “DPP4 activity in library screen, Exp 2” value was 58.4; the “DPP4 activity in library screen, Exp 3” value was 54.2. The “DPP4 activity in library screen, Mean” value under setting [6] was 55.0.

Turning to `OC[C@@H](O)[C@@H](O)[C@H](O)[C@H](O)CO` [D-Mannitol], the remaining activity at 10 µM turned out to be 96% under setting [1], 95.6% under setting [2], 83.5% under setting [3] and 91.7% under setting [4].

`CN(C)CCc1ccc(O)cc1` [Hordenine]: the remaining activity at 10 µM was 90.7% under setting [1], 95.7% under setting [2], 95.6% under setting [3] and 94% under setting [4].

On to `C[C@H]1COC2=C1C(=O)C(=O)c1c2ccc2c1CCCC2(C)C` [Cryptotanshinone], for which the remaining activity at 10 µM under setting [1] was 60.3%, the remaining activity at 10 µM under setting [2] was found to be 66.5%, the remaining activity at 10 µM under setting [3] is 58.2% and the remaining activity at 10 µM under setting [4] is 61.7%.

As to `C[C@@H]1O[C@@H](O)[C@H](O)[C@H](O)[C@H]1O.O` [L-(+)-Rhamnose Monohydrate], under setting [5], the “DPP4 activity in library screen, Exp 1” value worked out at 92.8; the “DPP4 activity in library screen, Exp 2” value amounted to 91.1; the “DPP4 activity in library screen, Exp 3” value came to 93. Also, under setting [6], the “DPP4 activity in library screen, Mean” value is 92.3.

Take `C[C@H]1C(=O)O[C@@H]2CCN3CC=C(COC(=O)[C@](C)(O)[C@]1(C)O)[C@H]23` [Monocrotaline]: the remaining activity at 10 µM is, setting by setting: under setting [1], 70.9%; under setting [2], 95.8%; under setting [3], 85.1%; under setting [4], 83.9%.

For the compound `CC1(C)CCC[C@]2(C)[C@H]3CC(=O)O[C@]3(C)CC[C@@H]12` [Sclareolide], under setting [5], the “DPP4 activity in library screen, Exp 1” value was 95.1; the “DPP4 activity in library screen, Exp 2” value stood at 80.7; the “DPP4 activity in library screen, Exp 3” value is listed as 80.2. The “DPP4 activity in library screen, Mean” value under setting [6] is on record as 85.3.

For `CC(C)[C@]12O[C@H]1[C@@H]1O[C@]13[C@]1(O[C@H]1C[C@H]1C4=C(CC[C@@]13C)C(=O)OC4)[C@@H]2O` [Triptolide (PG490), Triptolide], the remaining activity at 10 µM is, setting by setting: under setting [7], 98.7%; under setting [8], 94.9%; under setting [9], 109%; under setting [10], 101%.

For the compound `O=c1cccc2n1C[C@@H]1CNC[C@H]2C1` [Cytisine], the remaining activity at 10 µM turned out to be 90.3% (read-out: DPP4 activity in library screen, Exp 1); 91% (read-out: DPP4 activity in library screen, Exp 2); 109% (read-out: DPP4 activity in library screen, Exp 3); 96.7% (read-out: DPP4 activity in library screen, Mean).

The values are drawn from publication PMC5428354, “Screening of a natural compound library identifies emodin, a natural compound from Rheum palmatum Linn that inhibits DPP4” (PeerJ, 2017).
